Legend:
Type in all cases: cell-based, murine
IL-1β mRNA = test: LPS-induced IL-1β mRNA expression in RAW 264.7 cells (RT-PCR); conditions: LPS 50 ng/mL 6 h
Procedure: Total RNA was isolated, and used to measure the mRNA expression levels of IL-1b and β-actin by RT-PCR analysis. *** p < 0.001, ** p < 0.01. […] (A-C) Cells were treated with KMU-470 for 30 min and stimulated with LPS 50 ng/mL for 6 h. The levels of IL-1β, TNF-α, and IL-6 were determined using real time PCR. *** p < 0.001, *p < 0.05. (D) Cells were pre-treated with 0.1, 0.5, and 1 μM of KMU-470 for 30 min and treated with LPS 50 ng/mL for 6 h, respectively. […] (E) Cells were pre-treated with 0.1, 0.5, and 1 μM of KMU-470 for 30 min and treated with LPS 50 ng/mL for 6 h, respectively. […] Total RNA was isolated using TriZol reagent (Life Technologies; Gaithersburg, MD, USA) according to the manufacturer's protocol. Total RNA absorbance was quantified by using Nanodrop 1000 (Thermo Fisher Scientific, Waltham, MA, USA). […] Real time quantitative PCR was performed by using the SYBR green premix (Roche Diagnostics, Mannheim, Germany) on the LightCycler 480 PCR (system Roche Diagnostics, Mannheim, Germany). The following primer sequences were used: L32 (Housekeeping gene): forward [NT], reverse [NT]-1β; forward [NT], reverse [NT]-α; forward [NT], reverse [NT]-6; forward [NT], reverse [NT].

iNOS protein = test: LPS-induced iNOS protein expression in RAW 264.7 cells (Western blot); conditions: KMU-470 0.5 and 1 μM 30 min, LPS 1 μg/mL 24 h
Procedure: Figure 3 Inhibitory effect of KMU-470 on LPS-induced NO production and iNOS protein expression, and cell viability in RAW 264.7 cells. (A) The cells were pre-treated with KMU-470 at a concentration of 1 μM for 30 min and then treated with different concentrations of LPS for 24 h. Nitrite in the culture supernatant was collected and evaluated using Griess reagent. Absorbance was measured at 540 nm. *** p < 0.001, ** p < 0.01, * p < 0.05. (B) Cells are pre-treated with two different concentrations of KMU-470 (0.5 μM and 1 μM) for 30 min, followed by treatment with 1 μg/mL LPS for 24 h. β-actin was used as an internal control for Western blot analysis. (C) Image-J program was used to analyze the relative optical density of the iNOS band. (D) Cells were treated with various concentrations of KMU-470 for 24 h. […] (E) The cell proliferation rate was determined by cell count using a trypan blue exclusion assay. *p < 0.05 (F) Effect of KMU-470 on cell viability was measured by XTT assay. *** p < 0.001.
(§1) RAW 264.7 cells were pre-treated with KMU-470 (0.5–1 μM/mL) for 24 h and stimulated with LPS (50 ng/mL) for 6 h. […] Immunoreactive proteins were detected using the ELC Western blot detection system kit (Millipore). Signal intensity was measured using the Chemi Image documentation system (Fusion Fx7, VILBER LOUTMAT). Protein expression levels were quantified using the Image J program.

TLR4 = test: LPS-induced TLR4 protein expression in RAW 264.7 cells (Western blot); conditions: KMU-470 0.5 and 1 μM 30 min, LPS 6 h
Procedure: (§2) Figure 4 Inhibitory effect of KMU-470 on LPS-induced TLR4 and MyD88 protein expression in RAW 264.7 cells. (A,B) Cells were pre-treated with 0.5 and 1 μM of KMU-470 for 30 min prior to LPS treatment. Then, total protein was isolated after 6 h exposure to LPS. The protein expression level of TLR4 and MyD88 were assessed using Western blot analysis. (C,D) The relative optical densities of TLR4 and MyD88 bands were analyzed by the Image-J program. *** p < 0.001.
(§3) RAW 264.7 cells were pre-treated with KMU-470 (0.5–1 μM/mL) for 24 h and stimulated with LPS (50 ng/mL) for 6 h. After stimulation, total cells were harvested, washed with PBS buffer, and then the total protein was extracted with a RIPA buffer (0.1 mM sodium orthovanadate, 137 mM NaCl, 15 mM EGTA, 0.1% Triton X-100, 25 mM MOPS, 15 mM MgCl2, 100 μM phenylmethylsulfonyl fluoride, and 20 μM leupeptin, adjusted to pH 7.2). The cell culture media supernatants were precipitated using TCA (trichloroacetic acid, protocol by Luis Sanchez 2001). A BCA protein assay kit (Thermo Scientific, Wilmington, USA) was used for the determination of the protein concentration. […] Immunoreactive proteins were detected using the ELC Western blot detection system kit (Millipore). Signal intensity was measured using the Chemi Image documentation system (Fusion Fx7, VILBER LOUTMAT). Protein expression levels were quantified using the Image J program.

TNF-α = test: LPS-induced TNF-α mRNA in RAW 264.7 cells (real time PCR); conditions: KMU-470 30 min, LPS 50 ng/mL 6 h
Procedure: (§4) Figure 6 Inhibitory effect of KMU-470 on LPS-induced up-regulation of pro-inflammatory cytokines and activation of NLRP3 inflammasome in RAW 264.7 cells. (A–C) Cells were treated with KMU-470 for 30 min and stimulated with LPS 50 ng/mL for 6 h. The levels of IL-1β, TNF-α, and IL-6 were determined using real time PCR. *** p < 0.001, *p < 0.05. (D) Cells were pre-treated with 0.1, 0.5, and 1 μM of KMU-470 for 30 min and treated with LPS 50 ng/mL for 6 h, respectively. Whole cell lysates were isolated and used to measure the protein expression levels of pro-IL-1β and β-actin by Western blot analysis. (E) Cells were pre-treated with 0.1, 0.5, and 1 μM of KMU-470 for 30 min and treated with LPS 50 ng/mL for 6 h, respectively. Whole cell lysates were isolated and used to measure the protein expression levels of […], ASC, pro-caspase-1, pro-IL-1β, and β-actin by Western blot analysis.
Total RNA was isolated using TriZol reagent (Life Technologies; Gaithersburg, MD, USA) according to the manufacturer’s protocol. Total RNA absorbance was quantified by using Nanodrop 1000 (Thermo Fisher Scientific, Waltham, MA, USA). […] Real time quantitative PCR was performed by using the SYBR green premix (Roche Diagnostics, Mannheim, Germany) on the LightCycler 480 PCR (system Roche Diagnostics, Mannheim, Germany). […]

MyD88 = test: LPS-induced MyD88 protein expression in RAW 264.7 cells (Western blot); conditions: KMU-470 0.5 and 1 μM 30 min, LPS 6 h
Procedure: as §2, §3

IKKα/β = test: LPS-induced phosphorylation of IKKα/β in RAW 264.7 cells (Western blot); conditions: KMU-470 0.5 and 1 μM 30 min, LPS 50 ng/mL 6 h
Procedure: Figure 5 Effect of KMU-470 on LPS-induced phosphorylation of MAPKs/ IKKs/ NF-κB in RAW 264.7 cells. (A) Cells were pre-treated with 1μM of KMU-470 for 24 h and stimulated with LPS (50 ng/mL) at the indicated times. (C) Cells were pre-treated with 0.5 and 1μM of KMU-470 for 30 min prior to LPS treatment. Total proteins were isolated after 6 h exposure to LPS (50 ng/mL). The protein expression level of MAPKs, p-IKKα/β, and p-NF-κB were assessed using Western blot analyses. (B,D) The relative optical densities of MAPKs, p-IKKα/β, and p-NF-κB bands were analyzed by the Image-J program. *** p < 0.001.
as §3, with “7.2).” for “7.2). The cell culture media supernatants were precipitated using TCA (trichloroacetic acid, protocol by Luis Sanchez 2001). A BCA protein assay kit (Thermo Scientific, Wilmington, USA) was used for the determination of the protein concentration.”

ASC = test: LPS-induced ASC protein expression in RAW 264.7 cells (Western blot); conditions: KMU-470 0.1, 0.5, 1 μM 30 min, LPS 50 ng/mL 6 h
Procedure: as §4, §1

`CN(C)CCNc1cncc(-c2ccc3c(c2)/C(=C/c2cnc[nH]2)C(=O)N3)n1` [KMU-470, (Z)-3-((1H-Imidazol-5-yl)methylene)-5-(6-((2-(dimethylamino)ethyl)amino)pyrazin-2-yl)indolin-2-one] was tested, and the “LPS-induced up-regulation of IL-1β mRNA expression” value (IL-1β mRNA; 1 µM compound, pre-treatment 1 h, RT-PCR (Figure 2B)) was “significantly inhibited”, the “LPS-induced up-regulation of IL-1β (mRNA)” value (IL-1β mRNA; KMU-470 30 min, real time PCR (Figure 6A)) was “significantly decreased” and the “LPS-induced up-regulation of iNOS protein” value (iNOS protein) was “attenuated”. The “Up-regulation of TLR4 protein by LPS” value (TLR4) was “suppressed”, the “LPS-induced up-regulation of TNF-α (mRNA)” value (TNF-α) was “significantly decreased” and the “Up-regulation of MyD88 protein by LPS” value (MyD88) was “suppressed”. For the same compound, the “LPS-induced phosphorylation of IKKα/β” value (IKKα/β) was “significantly reduced” and the “Expression of ASC protein compared with LPS alone group” value (ASC) was “marked decrease”.

Source: publication PMC7403980, “Anti-Inflammatory Effects of the Novel PIM Kinase Inhibitor KMU-470 in RAW 264.7 Cells through the TLR4-NF-κB-NLRP3 Pathway” (International Journal of Molecular Sciences, 2020)
